{"source": "ChEMBL document CHEMBL2429809", "about": "“Novel peptide-doxorubucin conjugates for targeting breast cancer cells including the multidrug resistant cells” (J Med Chem, 2013)", "key": {"MCF-10A [1]": {"test_system": "MCF-10A", "assay": "Cytotoxicity against human MCF10A cells after 48 hrs by MTT assay", "type": "cell-based"}, "MDA-MB-435 [2]": {"test_system": "MDA-MB-435", "assay": "Cytotoxicity against doxorubicin-resistant multidrug-resistant human MDA-MB-435 cells after 48 hrs by MTT assay in presence of verapamil", "type": "functional, cell-based", "conditions": "MDA-MB-435, 48 h; call rule not given here"}, "MCF7 [3]": {"test_system": "MCF7", "assay": "Cellular uptake in human MCF7 cells at 5 uM after 2 hrs by FACS analysis in presence of NH2-WxEYAAQkFL-CONH2", "type": "ADME, cell-based", "conditions": "mcf7, 2 h"}, "HUVEC [4]": {"test_system": "HUVEC", "assay": "Cellular uptake in human HUVEC cells at 5 uM after 2 hrs by FACS analysis", "type": "ADME, cell-based"}, "MDA-MB-435 [5]": {"test_system": "MDA-MB-435", "assay": "Cytotoxicity against human MDA-MB-435 cells after 48 hrs by MTT assay in presence of verapamil", "type": "functional, cell-based", "conditions": "MDA-MB-435, 48 h"}, "HUVEC [6]": {"test_system": "HUVEC", "assay": "Cytotoxicity against human HUVEC cells after 48 hrs by MTT assay", "type": "cell-based"}, "MDA-MB-435 [7]": {"test_system": "MDA-MB-435", "assay": "Ratio of IC50 for doxorubicin-resistant multidrug-resistant human MDA-MB-435 cells to IC50 for doxorubicin-resistant multidrug-resistant human MDA-MB-435 cells in presence of verapamil", "type": "functional"}, "MDA-MB-435 [8]": {"test_system": "MDA-MB-435", "assay": "Cellular uptake in doxorubicin-resistant multidrug-resistant human MDA-MB-435 cells at 5 uM after 2 hrs by FACS analysis relative to doxorubicin", "type": "ADME, cell-based", "conditions": "mda-mb-435, 2 h"}, "MCF-10A [9]": {"test_system": "MCF-10A", "assay": "Cellular uptake in human MCF10A cells at 5 uM after 2 hrs by FACS analysis", "type": "ADME, cell-based"}, "MDA-MB-435 [10]": {"test_system": "MDA-MB-435", "assay": "Cytotoxicity against doxorubicin-resistant multidrug-resistant human MDA-MB-435 cells after 48 hrs by MTT assay", "type": "functional, cell-based", "conditions": "MDA-MB-435, 48 h"}, "MDA-MB-435 [11]": {"test_system": "MDA-MB-435", "assay": "Cytotoxicity against human MDA-MB-435 cells after 48 hrs by MTT assay", "type": "functional, cell-based", "conditions": "MDA-MB-435, 48 h"}, "MDA-MB-435 [12]": {"test_system": "MDA-MB-435", "assay": "Cellular uptake in human MDA-MB-435 cells at 5 uM after 2 hrs by FACS analysis relative to control", "type": "ADME, cell-based", "conditions": "mda-mb-435, 2 h"}, "MCF7 [13]": {"test_system": "MCF7", "assay": "Cellular uptake in human MCF7 cells at 5 uM after 2 hrs by FACS analysis relative to control", "type": "ADME, cell-based", "conditions": "mcf7, 2 h"}, "MDA-MB-435 [14]": {"test_system": "MDA-MB-435", "assay": "Ratio of IC50 for human MDA-MB-435 cells to IC50 for human MDA-MB-435 cells in presence of verapamil", "type": "functional"}, "MCF7 [15]": {"test_system": "MCF7", "assay": "Cytotoxicity against human MCF7 cells after 48 hrs by MTT assay", "type": "functional, cell-based", "conditions": "MCF7, 48 h"}, "[16]": {"assay": "Half life in human serum at 100 uM after 48 hrs by RP-HPLC analysis", "type": "ADME, cell-free"}, "MDA-MB-435 [17]": {"test_system": "MDA-MB-435", "assay": "Cellular uptake in doxorubicin-resistant multidrug-resistant human MDA-MB-435 cells at 5 uM after 2 hrs by FACS analysis", "type": "ADME, cell-based", "conditions": "mda-mb-435, 2 h"}, "MDA-MB-435 [18]": {"test_system": "MDA-MB-435", "assay": "Cytotoxicity against doxorubicin-resistant multidrug-resistant human MDA-MB-435 cells after 48 hrs by MTT assay relative to doxorubicin", "type": "functional"}}, "note": "pIC50: −log10 of the molar value."}
{"smiles": "CCCC[C@@H](NC(=O)[C@@H](N)Cc1c[nH]c2ccccc12)C(=O)N[C@@H](CCC(=O)O)C(=O)N[C@@H](C)C(=O)N[C@@H](C)C(=O)N[C@@H](Cc1ccc(O)cc1)C(=O)N[C@@H](CCC(N)=O)C(=O)N[C@H](CCCCNC(=O)CCCC(=O)OCC(=O)[C@]1(O)Cc2c(O)c3c(c(O)c2[C@@H](O[C@H]2C[C@H](N)[C@H](O)[C@H](C)O2)C1)C(=O)c1c(OC)cccc1C3=O)C(=O)N[C@@H](Cc1ccccc1)C(=O)N[C@@H](CC(C)C)C(N)=O", "values": [{"measurement": "pIC50", "setting": "MCF-10A [1]", "result": 4.39}, {"measurement": "pIC50", "setting": "MDA-MB-435 [2]", "result": 4.84}, {"measurement": "Drug uptake", "setting": "MCF7 [3]", "result": "Active"}, {"measurement": "Drug uptake", "setting": "HUVEC [4]", "result": "Active"}, {"measurement": "pIC50", "setting": "MDA-MB-435 [5]", "result": 4.81}, {"measurement": "pIC50", "setting": "HUVEC [6]", "result": 4.29}, {"measurement": "Ratio IC50", "setting": "MDA-MB-435 [7]", "result": 1.3}, {"measurement": "fold change (FC)", "setting": "MDA-MB-435 [8]", "result": 3}, {"measurement": "Drug uptake", "setting": "MCF-10A [9]", "result": "Active"}, {"measurement": "pIC50", "setting": "MDA-MB-435 [10]", "result": 4.71}, {"measurement": "pIC50", "setting": "MDA-MB-435 [11]", "result": 4.73}, {"measurement": "Drug uptake", "setting": "MDA-MB-435 [12]", "result": "Active"}, {"measurement": "Drug uptake", "setting": "MCF7 [13]", "result": "Active"}, {"measurement": "Ratio IC50", "setting": "MDA-MB-435 [14]", "result": 1.3}, {"measurement": "pIC50", "setting": "MCF7 [15]", "result": 4.72}]}
{"smiles": "CCCC[C@@H](NC(=O)[C@@H](N)Cc1c[nH]c2ccccc12)C(=O)N[C@@H](CCC(=O)O)C(=O)N[C@@H](C)C(=O)N[C@@H](C)C(=O)N[C@@H](Cc1ccc(O)cc1)C(=O)N[C@@H](CCC(N)=O)C(=O)N[C@H](CCCCNC(=O)CCCC(=O)N[C@H]1C[C@H](O[C@H]2C[C@](O)(C(=O)CO)Cc3c(O)c4c(c(O)c32)C(=O)c2c(OC)cccc2C4=O)O[C@@H](C)[C@H]1O)C(=O)N[C@@H](Cc1ccccc1)C(=O)N[C@@H](CC(C)C)C(N)=O", "values": [{"measurement": "pIC50", "setting": "MCF-10A [1]", "result": 4.45}, {"measurement": "pIC50", "setting": "MDA-MB-435 [2]", "result": 5.51}, {"measurement": "Drug uptake", "setting": "MCF7 [3]", "result": "Active"}, {"measurement": "Drug uptake", "setting": "HUVEC [4]", "result": "Active"}, {"measurement": "pIC50", "setting": "MDA-MB-435 [5]", "result": 6.08}, {"measurement": "half-life at 100 µM", "setting": "[16]", "result": 2, "unit": "h"}, {"measurement": "pIC50", "setting": "HUVEC [6]", "result": 4.37}, {"measurement": "Ratio IC50", "setting": "MDA-MB-435 [7]", "result": 1.3}, {"measurement": "fold change (FC)", "setting": "MDA-MB-435 [8]", "result": 4.7}, {"measurement": "Drug uptake", "setting": "MCF-10A [9]", "result": "Active"}, {"measurement": "Drug uptake", "setting": "MDA-MB-435 [17]", "result": "Active"}, {"measurement": "pIC50", "setting": "MDA-MB-435 [10]", "result": 5.27}, {"measurement": "pIC50", "setting": "MDA-MB-435 [11]", "result": 5.82}, {"measurement": "Drug uptake", "setting": "MDA-MB-435 [12]", "result": "Active"}, {"measurement": "Ratio IC50", "setting": "MDA-MB-435 [18]", "result": ">4"}, {"measurement": "Drug uptake", "setting": "MCF7 [13]", "result": "Active"}, {"measurement": "Ratio IC50", "setting": "MDA-MB-435 [14]", "result": 1.3}, {"measurement": "pIC50", "setting": "MCF7 [15]", "result": 6.05}]}
{"smiles": "COc1cccc2c1C(=O)c1c(O)c3c(c(O)c1C2=O)C[C@@](O)(C(=O)CO)C[C@@H]3O[C@H]1C[C@H](N)[C@H](O)[C@H](C)O1", "note": "[DOXORUBICIN]", "values": [{"measurement": "pIC50", "setting": "MCF-10A [1]", "result": 5.92}, {"measurement": "pIC50", "setting": "MDA-MB-435 [2]", "result": 5.81}, {"measurement": "Drug uptake", "setting": "MCF7 [3]", "result": "Active"}, {"measurement": "Drug uptake", "setting": "HUVEC [4]", "result": "Active"}, {"measurement": "pIC50", "setting": "MDA-MB-435 [5]", "result": 6.82}, {"measurement": "pIC50", "setting": "HUVEC [6]", "result": 5.96}, {"measurement": "pIC50", "setting": "MDA-MB-435 [10]", "result": 4.66}, {"measurement": "pIC50", "setting": "MDA-MB-435 [11]", "result": 6.22}]}
